In US20100234377A1 (priority 2007, published 2010):

target: T1, human Prostaglandin D Synthase (GST2) (Homo sapiens, UniProt O60760); experiment: Homogeneous biochemical assay of human Prostaglandin D Synthase (GST2) based on its glutathion-S-transferase activity (GSH conjugation to monochlorobimane, fluorescence); settings: not given
T1 construct: the open reading frame of human Prostaglandin D Synthase was amplified from cDNA; made in house; host or cells: E. coli TOP10F'
From the text: Homogeneous, Biochemical Assay Monitoring the Activity of Human Prostaglandin D Synthase Based on the Glutathion-S-Transferase Activity of the Enzyme
Prostaglandin D2 synthesis by Prostaglandin D synthase (GST2) requires transfer of Glutathion (GSH) to the substrate, Prostaglandin H2. […] Since the Prostaglandin D2 synthesis is absolutely dependent on the GST activity of the enzyme, assays monitoring the GST activity should allow to identify specific inhibitors of Prostaglandin D2 synthetic activity. The assay principle used is based on enzymatic conjugation of GSH to Monochlorobimane (MCB), that becomes fluorescent upon this chemical modification. Therefore, the enzymatic reaction can be monitored by total fluorescence measurement.
In brief, the open reading frame of human Prostaglandin D Synthase was amplified from cDNA using the primer pair:
This construct allows prokaryotic expression of Prostaglandin D Synthase as fusion protein with a N-terminal hexa-histidine tag, referred to as NHis-Prostaglandin D Synthase.
Expression of NHis-Prostaglandin D Synthase was in E. coli TOP10F′ (Invitrogen, Germany, cat. no. C3030-03). […] When the culture had reached a density corresponding to an A600 of 0.6, an equal volume of room temperature LB/ampicillin was added. […] Cells harvested by centrifugation were resuspended in 50 mM tris(hydroxymethyl)aminomethane hydrochloride pH 7.5 (Tris/HCl, Sigma, cat. no. T5941).
Removal of unbound material was with 100 ml lysis buffer. Elution was with 50 ml of 50 mM Tris/HCl pH 7.5, 300 mM imidazol (Sigma, Germany, cat. no. I2399)/HCl pH 7.5). […] Aliquots were shock frozen in liquid nitrogen and stored at −80° C.
All assay components were diluted in reaction buffer, 50 mM MES/KOH (pH 6.1), 0.7 mM GSH (Sigma, G4251), 2 mM MgCl2 (Sigma, M2670), 0.05% Pluronic F127 (Sigma, P2443), and stored on ice prior to use. Compounds were diluted in 90% DMSO yielding final assay concentrations from the picomolar to three digit micromolar range.
Total fluorescent measurement was carried out with excitation and emission wavelength of 390 and 460 nm, respectively (BMG Fluostar Optima).

T1 sequence (O60760 whole entry): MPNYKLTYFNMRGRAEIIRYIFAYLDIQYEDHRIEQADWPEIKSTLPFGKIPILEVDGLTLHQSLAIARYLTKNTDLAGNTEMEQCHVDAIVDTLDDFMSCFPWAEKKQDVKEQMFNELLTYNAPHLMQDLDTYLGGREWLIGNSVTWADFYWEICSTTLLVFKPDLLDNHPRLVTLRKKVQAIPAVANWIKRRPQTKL

Question: For `O=C(Nc1ccc(F)cc1)N1CCN(C(=O)c2ccccc2CO)CC1` [Compound XXIII, 4-(2-Hydroxymethyl-benzoyl)-piperazine-1-carboxylic acid (4-fluoro-phenyl)-amide], which IC50 is on record?
Answer: The IC50 was 16200 nM.

same assay, conditions: Table 2; comparative examples; read-out: GST2 inhibition IC50

Question: How did the IC50 turn out when `COC(=O)c1ccccc1C(=O)N1CCN(C(=O)Nc2ccc(F)cc2)CC1` [XIII, 2-[4-(4-Fluoro-phenylcarbamoyl)-piperazine-1-carbonyl]-benzoic acid methyl ester, reference compound] was run?
Answer: Its IC50 is 28200 nM.

Question: How did the IC50 turn out when `O=C(Nc1ccc(F)cc1)N1CCN(C(=O)c2ccccc2Oc2ccccc2)CC1` [XIV, 4-(2-Phenoxy-benzoyl)-piperazine-1-carboxylic acid (4-fluoro-phenyl)-amide, reference compound] was run?
Answer: The IC50 was 180000 nM.

Question: Which IC50 does the source give for `NC(=O)c1ccccc1C(=O)N1CCN(C(=O)Nc2ccc(F)cc2)CC1` [Compound XXI, 4-(2-Carbamoyl-benzoyl)-piperazine-1-carboxylic acid (4-fluoro-phenyl)-amide, reference compound] here?
Answer: Its IC50 is 16800 nM.

same assay, conditions: given beside the compound name in Examples 1 to 167; read-out: Potency Range (GST2 IC50)

Question: With `O=C(Nc1nc(-c2ccccc2)ns1)N1CCN(C(=O)c2cccc(F)c2)CC1` [Compound 70, 4-(3-Fluoro-benzoyl)-piperazine-1-carboxylic acid (3-phenyl-[1,2,4]thiadiazol-5-yl)-amide] as the molecule, how does the IC50 read?
Answer: The IC50 was 11 to 100 nM.

Question: `COc1ccc2nc(NC(=O)N3CCN(C(=O)c4cccc(F)c4)CC3)sc2c1` [Compound 81, 4-(3-Fluoro-benzoyl)-piperazine-1-carboxylic acid (6-methoxy-benzothiazol-2-yl)-amide] was tested. Which IC50 did it give?
Answer: Its IC50 is 1 to 10 nM.

Question: With `O=C(Nc1nc(-c2ccccn2)cs1)N1CCN(C(=O)c2cccc(F)c2)CC1` [Compound 73, 4-(3-Fluoro-benzoyl)-piperazine-1-carboxylic acid (4-pyridin-2-yl-thiazol-2-yl)-amide] as the molecule, how does the IC50 read?
Answer: Its IC50 is 11 to 100 nM.

Question: With `O=C(Nc1ccc(NS(=O)(=O)C2CC2)cc1)N1CCN(C(=O)c2cccc(F)c2)CC1` [Compound 127, 4-(3-Fluoro-benzoyl)-piperazine-1-carboxylic acid (4-cyclopropanesulfonylamino-phenyl)-amide] as the molecule, how does the IC50 read?
Answer: The IC50 was 11 to 100 nM.

Question: Which IC50 does the source give for `COc1ccc(NC(=S)N2CCN(C(=O)c3ccc(F)cc3)CC2)cc1` [Compound 12, 4-(4-Fluoro-benzoyl)-piperazine-1-carbothioic acid (4-methoxy-phenyl)-amide] here?
Answer: The IC50 was 101 to 1000 nM.

Question: With `NC(=O)c1cc(NC(=O)N2CCN(C(=O)c3cccc(F)c3)CC2)ccc1F` [Compound 160, 4-(3-Fluoro-benzoyl)-piperazine-1-carboxylic acid (3-carbamoyl-4-fluoro-phenyl)-amide] as the molecule, how does the IC50 read?
Answer: The IC50 was 101 to 1000 nM.

Question: For `O=C(Nc1ccc(C(F)(F)F)cc1)N1CCN(C(=O)c2cccc(Cl)c2)CC1` [Compound 165, 4-(3-Chloro-benzoyl)-piperazine-1-carboxylic acid (4-trifluoromethyl-phenyl)-amide], which IC50 is on record?
Answer: Its IC50 is 101 to 1000 nM.

Question: For `O=C(Nc1ccc(-c2nnn[nH]2)cc1)N1CCN(C(=O)c2cccc(F)c2)CC1` [Compound 135, 4-(3-Fluoro-benzoyl)-piperazine-1-carboxylic acid [4-(1H-tetrazol-5-yl)-phenyl]-amide], which IC50 is on record?
Answer: Its IC50 is 11 to 100 nM.

Question: Which IC50 does the source give for `CC(C)NC(=O)N1CCN(c2ccc(NC(=O)N3CCN(C(=O)c4cc(F)ccc4F)CC3)cc2F)CC1` [Compound 55, 4-(2,5-difluorobenzoyl)-N-{3-fluoro-4-[4-(isopropylcarbamoyl)piperazin-1-yl]phenyl}piperazine-1-carboxamide] here?
Answer: The IC50 was 101 to 1000 nM.

Question: With `O=C(Nc1ccc(NC(=O)N2CCN(C(=O)c3cccc(F)c3)CC2)cc1)c1ccc(F)cc1` [Compound 120, 4-(3-Fluoro-benzoyl)-piperazine-1-carboxylic acid [4-(4-fluoro-benzoylamino)-phenyl]-amide] as the molecule, how does the IC50 read?
Answer: The IC50 was 11 to 100 nM.

Question: How did the IC50 turn out when `O=C(c1ccc(F)cc1)N1CCN(C(=S)Nc2ccc(Oc3ccccc3)cc2)CC1` [Compound 9, 4-(4-Fluoro-benzoyl)-piperazine-1-carbothioic acid (4-phenoxy-phenyl)-amide] was run?
Answer: Its IC50 is 101 to 1000 nM.
